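Compound exposure: 48 hours, 5 concentrations, 96-well plates. GI50 is the concentration that inhibits growth by half. TGI denotes the concentration required for complete inhibition of growth.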
Legend:
Assay in all cases: NCI anticancer screen, dose series, 48 h
[1] = tested on: TK-10 renal
[2] = tested on: HOP-62 NSCLC
[3] = tested on: SF-268 CNS
[4] = tested on: DU-145 prostate
[5] = tested on: NCI-H522 lung
[6] = tested on: NCI-H226 lung
[7] = tested on: SNB-19 CNS
[8] = tested on: MDA-N
[9] = tested on: OVCAR-4 ovarian
[10] = tested on: OVCAR-5 ovarian
[11] = tested on: SF-539 CNS
[12] = tested on: UO-31 renal
[13] = tested on: OVCAR-3 ovarian
[14] = tested on: A549 NSCLC
[15] = tested on: HCT-15 colon
[16] = tested on: 786-0 renal
[17] = tested on: SR leukemia
[18] = tested on: BT-549 breast
[19] = tested on: LOX IMVI melanoma
[20] = tested on: HOP-92 NSCLC
[21] = tested on: HCT-116 colon
[22] = tested on: KM12 colon
[23] = tested on: NCI/ADR-RES ovarian
[24] = tested on: RPMI-8226 leukemia
[25] = tested on: OVCAR-8 ovarian
[26] = tested on: K-562 leukemia
[27] = tested on: SW-620 colon
[28] = tested on: ACHN renal
[29] = tested on: U251 CNS
[30] = tested on: MCF7 breast
[31] = tested on: A498 renal
[32] = tested on: SN12C renal
[33] = tested on: UACC-62 melanoma
[34] = tested on: SK-MEL-5 melanoma
[35] = tested on: MDA-MB-435
[36] = tested on: MDA-MB-231 breast
[37] = tested on: EKVX NSCLC
[38] = tested on: IGROV1 ovarian
[39] = tested on: M14 melanoma
[40] = tested on: HCC-2998 colon
[41] = tested on: NCI-H460 lung
[42] = tested on: HT29 colon
[43] = tested on: CCRF-CEM leukemia
[44] = tested on: SK-MEL-28 melanoma
[45] = tested on: PC-3 prostate
[46] = tested on: SK-OV-3 ovarian
[47] = tested on: SF-295 CNS
[48] = tested on: HS 578T breast
[49] = tested on: UACC-257 melanoma
[50] = tested on: SK-MEL-2 melanoma
[51] = tested on: MOLT-4 leukemia
[52] = tested on: SNB-75 CNS
[53] = tested on: COLO 205 colon
[54] = tested on: MALME-3M melanoma
[55] = tested on: RXF 393 renal
[56] = tested on: NCI-H23 lung
[57] = tested on: HL-60(TB) leukemia
[58] = tested on: T-47D breast
[59] = tested on: CAKI-1 renal

Structure (SMILES): COc1cc2c(cc1OCCCNC(=O)c1cc3ccccc3[nH]1)N=C[C@@H]1CCCN1C2=O
- TGI [1]: > 47.5 µM
- TGI [2]: 21.6 µM
- TGI [3]: 0.237 µM
- TGI [4]: > 34.3 µM
- TGI [5]: 0.0462 µM
- TGI [6]: 2.96 µM
- TGI [7]: > 38.3 µM
- TGI [8]: 1.87 µM
- TGI [9]: 11.7 µM
- TGI [10]: > 33.3 µM
- TGI [11]: 0.539 µM
- TGI [12]: > 100 µM
- TGI [13]: > 100 µM
- TGI [14]: > 100 µM
- TGI [15]: > 26.9 µM
- TGI [16]: 41.4 µM
- TGI [17]: > 100 µM
- TGI [18]: 0.559 µM
- TGI [19]: > 100 µM
- TGI [20]: > 100 µM
- TGI [21]: 14.3 µM
- TGI [22]: 1.84 µM
- TGI [23]: 9.99 µM
- TGI [24]: > 100 µM
- TGI [25]: 3.64 µM
- TGI [26]: > 100 µM
- TGI [27]: > 100 µM
- TGI [28]: > 100 µM
- TGI [29]: > 33.6 µM
- TGI [30]: > 48.1 µM
- TGI [31]: 0.257 µM
- TGI [32]: 14.9 µM
- TGI [33]: 0.705 µM
- TGI [34]: 0.297 µM
- TGI [35]: 0.716 µM
- TGI [36]: > 35.2 µM
- TGI [37]: 5.68 µM
- TGI [38]: 0.74 µM
- TGI [39]: 1.15 µM
- TGI [40]: 10.5 µM
- TGI [41]: > 100 µM
- TGI [42]: > 34.3 µM
- TGI [43]: > 100 µM
- TGI [44]: 1.65 µM
- TGI [45]: 5.79 µM
- TGI [46]: > 60.2 µM
- TGI [47]: > 31.9 µM
- TGI [48]: 0.562 µM
- TGI [49]: > 66.4 µM
- TGI [50]: 0.418 µM
- TGI [51]: > 100 µM
- TGI [52]: 2.01 µM

Structure (SMILES): N#Cc1ccc(NC(=NCC(=O)O)Nc2cccc3ccccc23)cc1
- TGI [1]: > 10 µM
- TGI [53]: > 10 µM
- TGI [2]: > 10 µM
- TGI [3]: > 10 µM
- TGI [54]: > 10 µM
- TGI [4]: > 10 µM
- TGI [8]: > 10 µM
- TGI [14]: > 10 µM
- TGI [15]: > 10 µM
- TGI [55]: > 10 µM
- TGI [16]: > 10 µM
- TGI [17]: > 10 µM
- TGI [22]: > 10 µM
- TGI [24]: > 10 µM
- TGI [25]: > 10 µM
- TGI [26]: > 10 µM
- TGI [27]: > 10 µM
- TGI [30]: > 10 µM
- TGI [32]: > 10 µM
- TGI [33]: > 10 µM
- TGI [34]: > 10 µM
- TGI [56]: > 10 µM
- TGI [36]: > 10 µM
- TGI [37]: > 10 µM
- TGI [38]: > 10 µM
- TGI [39]: > 10 µM
- TGI [40]: > 10 µM
- TGI [42]: > 10 µM
- TGI [43]: > 10 µM
- TGI [44]: > 10 µM
- TGI [45]: > 10 µM
- TGI [46]: > 10 µM
- TGI [47]: > 10 µM
- TGI [57]: > 10 µM
- TGI [58]: > 10 µM
- TGI [59]: > 10 µM
- TGI [49]: > 10 µM
- TGI [51]: > 10 µM
- TGI [52]: > 10 µM

Structure (SMILES): COc1ccc2c(c1)C(=O)c1c-2n(CCCn2ccnc2)c(=O)c2ccccc12
- GI50 [1]: 2.09 µM
- TGI [1]: 15.4 µM
- GI50 [53]: 0.579 µM
- TGI [53]: 14.3 µM
- GI50 [2]: 0.137 µM
- TGI [2]: 0.781 µM
- GI50 [3]: 0.214 µM
- TGI [3]: > 25.3 µM
- GI50 [54]: 1.25 µM
- TGI [54]: 6.44 µM
- GI50 [4]: 0.247 µM
- TGI [4]: 4.66 µM
- GI50 [5]: 0.174 µM
- TGI [5]: 5.5 µM
- GI50 [6]: 1.12 µM
- TGI [6]: 5.58 µM
- GI50 [7]: 0.293 µM
- TGI [7]: > 46.5 µM
- GI50 [9]: 1.33 µM
- TGI [9]: > 100 µM
- GI50 [10]: 1.24 µM
- TGI [10]: 3.92 µM
- GI50 [11]: 0.244 µM
- TGI [11]: 0.906 µM
- GI50 [12]: 0.0867 µM
- TGI [12]: 0.476 µM
- GI50 [13]: 0.901 µM
- GI50 [14]: 0.511 µM
- TGI [14]: 4.66 µM
- GI50 [15]: 1.24 µM
- TGI [15]: 7.72 µM
- GI50 [55]: 0.431 µM
- TGI [55]: 2 µM
- GI50 [16]: 0.239 µM
- TGI [16]: 1.66 µM
- GI50 [17]: 0.0765 µM
- TGI [17]: 7.81 µM
- GI50 [18]: 0.478 µM
- TGI [18]: 3.87 µM
- GI50 [19]: 0.179 µM
- TGI [19]: 0.835 µM
- GI50 [20]: 1.03 µM
- TGI [20]: > 23.2 µM
- GI50 [21]: 0.235 µM
- TGI [21]: 0.74 µM
- GI50 [22]: 0.729 µM
- TGI [22]: 3.78 µM
- GI50 [23]: 0.634 µM
- TGI [23]: 5.92 µM
- GI50 [24]: 0.223 µM
- TGI [24]: 2 µM
- GI50 [25]: 0.602 µM
- TGI [25]: > 69.2 µM
- GI50 [26]: 0.548 µM
- TGI [26]: > 100 µM
- GI50 [27]: 0.247 µM
- TGI [27]: 7.59 µM
- GI50 [28]: 0.144 µM
- TGI [28]: 1.04 µM
- GI50 [29]: 0.126 µM
- TGI [29]: 2.6 µM
- GI50 [30]: 0.0241 µM
- TGI [30]: 1.84 µM
- GI50 [31]: 0.471 µM
- TGI [31]: 1.76 µM
- GI50 [32]: 0.692 µM
- TGI [32]: > 100 µM
- GI50 [33]: 0.403 µM
- TGI [33]: 1.86 µM
- GI50 [34]: 0.154 µM
- TGI [34]: 0.344 µM
- GI50 [35]: 0.67 µM
- TGI [35]: 3.24 µM
- GI50 [56]: 0.284 µM
- TGI [56]: 7.86 µM
- GI50 [36]: 3.79 µM
- TGI [36]: > 79.1 µM
- GI50 [37]: 1.51 µM
- TGI [37]: 11.9 µM
- GI50 [38]: 0.204 µM
- TGI [38]: 2.55 µM
- GI50 [40]: 0.72 µM
- TGI [40]: 2.91 µM
- GI50 [41]: 0.128 µM
- TGI [41]: 1.46 µM
- GI50 [43]: 0.213 µM
- TGI [43]: 24.8 µM
- GI50 [44]: 2.08 µM
- TGI [44]: > 57.4 µM
- GI50 [45]: 0.765 µM
- TGI [45]: > 100 µM
- GI50 [46]: 0.595 µM
- TGI [46]: 4.59 µM
- GI50 [47]: 0.101 µM
- TGI [47]: 2.13 µM
- GI50 [57]: 1.49 µM
- TGI [57]: 18.4 µM
- GI50 [58]: 0.399 µM
- TGI [58]: 5.68 µM
- GI50 [59]: 0.211 µM
- TGI [59]: 1.34 µM
- GI50 [48]: 1.49 µM
- TGI [48]: 17.8 µM
- GI50 [49]: 1.14 µM
- TGI [49]: 10.9 µM
- GI50 [50]: 0.843 µM
- TGI [50]: 8.82 µM
- GI50 [51]: 0.136 µM
- TGI [51]: > 100 µM
- GI50 [52]: 0.843 µM
- TGI [52]: > 22.4 µM

— PubChem BioAssay (NCI)
